Test results from patent publication US9863949B2, “Method for predicting and evaluating responsiveness to cancer treatment with DNA-damaging chemotherapeutic agents” (NEKTAR THERAPEUTICS, priority 2013, dated 2018).
Read-outs that look alike come from different tables or passages of the source.

Key:
NCI-H460 cells = assay: DNA damage pathway markers in NCI-H460 cells treated ex vivo, laser scanning cytometry; assay type: cell-based; conditions: NCI-H460, 0.01 μM drug
HL60 = system: HL60
Description: (§1) Gemcitabine inhibits thymidylate synthetase, leading to inhibition of DNA synthesis and cell death. The cells were treated at concentrations of 0.01, 0.1, 1 and 10 μM in triplicate with appropriate controls.
(§2) A MTT cytotoxicity assay was performed. Optical density (OD) was determined for each sample, and IC50 values were determined (Graphpad Prism software using 4-parameter, non-linear curve fitting) for each drug relative to each cell line. The dose response of SN-38 and gemcitabine in the different cell lines was plotted.

NCI-H460 = system: NCI-H460
Description: as §1, §2

HCT116 cells = assay: Biomarker assay qualification, drug-treated HCT116 cells, MFI by iCys; assay type: cell-based, human; conditions: HCT116 treated with 10 μM SN-38 for 24 hours
Description: Primary and secondary antibodies were obtained from commercial sources. Control (0.1% DMSO) and drug-treated (SN-38, 10 uM) tumor cell lines and peripheral blood mononuclear cells (PBMCs) from healthy donors were used for biomarker qualification. The cell lines employed were as follows: HCT 116 (human colon carcinoma), MCF7 (human breast adenocarcinoma), A549 (human lung carcinoma), and SK-BR-3 (human breast adenocarcinoma, derived from metastatic site).
(§3) Colorectal HCT-116 tumor cell lines treated with drug (SN-38, 10 μM) or DMSO (0.1%) were used as positive and negative controls, respectively, for the assay development for topoisomerase I and γ-H2Ax. […] After incubation, cells were detached using 0.25% trypsin for 2-5 minutes, washed, counted, fixed with 2% PFA for 20 minutes, and cytospun onto glass slides.
as §3, with “controls” for “controls, respectively,”, “of RAD51.” for “for topoisomerase I and γ-H2Ax.”
For each marker, one to three different antibodies were tested. […] Cells were cover slipped and fluorescence intensity was quantified using iCys (CompuCyte, Westwood, Mass.). […]

[1] = 24 hr drug + 24 hr without drug

## CCc1c2c(nc3ccc(O)cc13)-c1cc3c(c(=O)n1C2)COC(=O)[C@]3(O)CC [SN-38]
NCI-H460 cells; 24 hr drug
  ATM % change in MFI: 120%
  ATM % change of positive cells: 13%
  BRCA1 % change in MFI: −8%
  BRCA1 % change of positive cells: 143%
  BRCA2 % change in MFI: −20%
  BRCA2 % change of positive cells: 131%
  RAD51 % change in MFI: −8%
  RAD51 % change of positive cells: 180%
  Survivin % change in MFI: 149%
  Survivin % change of positive cells: −18%
  yH2AX % change in MFI: 1%
  yH2AX % change of positive cells: 235%
NCI-H460 cells; 24 hr drug + 6 hr without drug
  ATM % change in MFI: 329%
  ATM % change of positive cells: 88%
  BRCA1 % change in MFI: −10%
  BRCA1 % change of positive cells: −52%
  BRCA2 % change in MFI: −16%
  BRCA2 % change of positive cells: 8%
  RAD51 % change in MFI: 120%
  RAD51 % change of positive cells: 337%
  Survivin % change in MFI: 203%
  Survivin % change of positive cells: 4%
  yH2AX % change in MFI: −7%
  yH2AX % change of positive cells: 919%
NCI-H460 cells; [1]
  ATM % change in MFI: 41%
  ATM % change of positive cells: 105%
  BRCA1 % change in MFI: 162%
  BRCA1 % change of positive cells: 3700%
  BRCA2 % change in MFI: 263%
  BRCA2 % change of positive cells: 261%
  RAD51 % change in MFI: 32%
  RAD51 % change of positive cells: 60%
  Survivin % change in MFI: 210%
  Survivin % change of positive cells: 85%
  yH2AX % change in MFI: −77%
  yH2AX % change of positive cells: 328%
HL60; HL60, 72 hours, 0.01-10 μM
  dose response in MTT cytotoxicity assay: Good dose response
NCI-H460; H460, 72 hours, 0.01-10 μM
  dose response in MTT cytotoxicity assay: Good dose response
HCT116 cells; staining panel 1
  γ-H2Ax High, MFI (x10^3): HCT116 (SN38), 487 x10^3
HCT116 cells; staining panel 2
  RAD51 High, MFI (x10^3): HCT116 (SN38), 948 x10^3

## pentaerythritolyl-4-arm-(PEG-1-methylene-2 oxo-vinylamino acetate linked-irinotecan)-20K [4-arm-PEG-gly-irino-20K]
Metastatic breast cancer; 145 mg/m^2 IV, every 14 days or every 21 days
  objective response rate (ORR): 28.6%
Metastatic breast cancer; Total
  Overall Survival (OS): 10.3 months
  Progression Free Survival (PFS): 4.6 months
Metastatic breast cancer; Total, 16/45
  Overall best CA27.29 response (50% or better decline in at least one observation from baseline): 36% (16/45)
Metastatic breast cancer; Total, N = 66
  Overall Response Rate (ORR): 29% (N = 66)
Metastatic breast cancer; q21d
  Overall Survival (OS): (13.1 months in q21d)
  Progression Free Survival (PFS): (5.3 months in q21d)

## Nc1ccn([C@@H]2O[C@H](CO)[C@@H](O)C2(F)F)c(=O)n1 [Gemcitabine, gemcitabine]
NCI-H460 cells; 24 hr drug
  ATM % change in MFI: 125%
  ATM % change of positive cells: −28%
  BRCA1 % change in MFI: −3%
  BRCA1 % change of positive cells: 162%
  BRCA2 % change in MFI: −43%
  BRCA2 % change of positive cells: 130%
  RAD51 % change in MFI: 7%
  RAD51 % change of positive cells: 62%
  Survivin % change in MFI: −32%
  Survivin % change of positive cells: −32%
  yH2AX % change in MFI: 3%
  yH2AX % change of positive cells: 204%
NCI-H460 cells; 24 hr drug + 6 hr without drug
  ATM % change in MFI: 438%
  ATM % change of positive cells: 80%
  BRCA1 % change in MFI: 18%
  BRCA1 % change of positive cells: −54%
  BRCA2 % change in MFI: −28%
  BRCA2 % change of positive cells: 6%
  RAD51 % change in MFI: 127%
  RAD51 % change of positive cells: 613%
  Survivin % change in MFI: 223%
  Survivin % change of positive cells: 1%
  yH2AX % change in MFI: 40%
  yH2AX % change of positive cells: 1235%
NCI-H460 cells; [1]
  ATM % change in MFI: 151%
  ATM % change of positive cells: 40%
  BRCA1 % change in MFI: 206%
  BRCA1 % change of positive cells: 3750%
  BRCA2 % change in MFI: 296%
  BRCA2 % change of positive cells: 167%
  RAD51 % change in MFI: 23%
  RAD51 % change of positive cells: 260%
  Survivin % change in MFI: 457%
  Survivin % change of positive cells: −14%
  yH2AX % change in MFI: 288%
  yH2AX % change of positive cells: 1834%
HL60
  dose response in MTT cytotoxicity assay: Good dose response
NCI-H460
  dose response in MTT cytotoxicity assay: Good dose response
